For series [1] the following is noted: cystinuria patients; cited from earlier work.
Series [2] can be described thus: Tissue levels of cysteamine in liver and kidney at end of PK study. The class given is in vivo, Sprague-Dawley rats. To be noted: 10.5 hours after TTI-0602 120 mg/kg, all three rats. Here is the method: (§1) In addition to the plasma samples, gastrointestinal contents (stomach contents, proximal small intestinal contents, distal small intestinal contents and cecum/colon contents), liver, kidney and spleen were obtained from rats at the end of the study (10.5 hours after dosing) and snap frozen. Tissue levels of cysteamine, N-acetyl cysteamine and pantothenic acid were measured in the gastrointestinal contents and in liver and kidney tissue. […]

Series [3] can be described thus: Dissolution of TTI-0602 dose in saline. Particulars: 120 mg/kg dose in 3 milliliters of saline. The class given is physicochemical.
Series [4] in a line: Analysis of gastrointestinal contents at end of PK study. Type of series: in vivo, Sprague-Dawley rats. Particulars: 120 mg/kg rats, ten hours after dosing. How it is done: as §1
The test system of series [5] is white blood cell (WBC) cystine. Put plainly: Example 8 cystinosis patient cases: white blood cell cystine. Type of series: in vivo, human. An excerpt: (§2) Dose formulations and treatment regimens for three patients with cystinosis are described, to illustrate both demographic variability in the patient population and how inter-individual biochemical variation in drug absorption, metabolism and response can be overcome by exploiting the drug and dosage form flexibility provided by the invention. These examples illustrate the principles of cysteamine precursor selection, dosage form selection and dose regimen individualization.
Disease control is monitored via periodic measurement of white blood cell cystine levels. The therapeutic target, as for all cystinosis patients, is to suppress white blood cell (WBC) cystine to less than 1 nanomole of ½ cystine per mg of WBC protein. […] If this higher dose is still not effective in controlling WBC cystine levels the dose can be further increased in increments of 150 mg/day.

The nature of series [6]: Example 8 cystinosis patient cases: plasma cysteamine levels. Type of series: in vivo, human.
Text: as §2

The conditions of series [7]: cited from earlier work.
Another series deals with kidney fibrosis. Particulars: two mouse models; cited from earlier work.
The test system of series [8] is CYP1A2, CYP2A6, CYP2B6, CYP2C8, CYP2C9, CYP2C19, CYP2D6, CYP2E1 and CYP3A4. Particulars: in vitro; cited from earlier work.
A further series deals with Plasmodium Falciparum. To be noted: in vitro and in mouse models of malaria; cited from earlier work.
In a further series the test system is R6/2 HD mouse model. Particulars: R6/2 mouse; cited from earlier work.
In another series the test system is Pseudomonas aeruginosa. To be noted: cited from earlier work.
For series [9] the following is noted: administered to fasting patients; cited from earlier work.
The next series deals with children with NAFLD. Particulars: pediatric NAFLD patients treated for 24 weeks; cited from earlier work.
Series [10] concerns cancer cell lines and xenograft models. Particulars: cited from earlier work.
For series [11] the following is noted: Lynovex from Novabiotics; cited from earlier work.
Series [12] relates to CYP1A2, CYP2B6, CYP2C8, CYP2C9, CYP2C19, CYP2D6, CYP2E1, CYP2A6, CYP3A4. Particulars: in vitro; cited from earlier work.
For series [13], the system named is erythrocytes from sickle cell disease patients. Particulars: hypoxic conditions; cited from earlier work.
Series [14] can be described thus: Pharmacokinetic study of TTI-0602: cysteamine in blood plasma after gavage. Type of series: in vivo, Sprague-Dawley rats. How it is done: Thus in the discussion below, and in the accompanying figures, a “30 mg/kg” dose of TTI-0602 means 77.92 mg/kg was administered, a “60 mg/kg” dose of TTI-0602 means 155.84 mg/kg was administered and a “120 mg/kg” dose of TTI-0602 means 311.68 mg/kg was administered. The purpose of this nomenclature, which is widely used in the literature concerning cysteamine salts, is to facilitate comparison of doses of different cysteamine precursors and cysteamine salts.
The TTI-0602 doses were prepared for 250 gram rats, but the actual masses of the rats at the time of drug administration varied from 267-300 grams, so the actual doses, normalized to body weight, ranged from 26.1-27.1 mg/kg in group 1, 51.7-56.2 mg/kg in group 2 and 108.3-109.5 mg/kg in group 3. Nonetheless, for convenience those doses are referred to as 30, 60 and 120 mg/kg.
Blood samples were obtained from rats immediately before dosing and 5, 10, 20, 30, 45, 60, 90, 120, 180, 240, 300 and 600 minutes after dosing via carotid artery catheters surgically implanted before the PK study. Plasma was obtained from blood by centrifugation and snap frozen. Several days later plasma samples were thawed on ice and each plasma sample was aliquoted to two paired tubes (20 μL per tube), one of which was processed for measurement of thiols (after quantitative disulfide bond reduction), while the other was processed for analysis of disulfides.
To quantitatively reduce disulfide bonds the plasma in the first tube was treated with 5 mM tris(2-carboxyethyl)phosphine (TCEP), a selective and potent disulfide bond reducing agent, using a protocol reported by Dohil et al. (2012). Briefly, 2.2 ul of freshly prepared 50 mM TCEP stock solution was added to 20 ul of plasma and the sample incubated at 37 degrees C. for 45 minutes. […]
The denatured protein was pelleted by centrifugation at 14,000 rpm for 10 minutes at 4 degrees C. in an Eppendorf microcentrifuge. […] Metabolites were analyzed using a Nexera X2 U-HPLC (Shimadzu) and a Q-Exactive hybrid quadrupole Orbitrap mass spectrometer (Thermo Fisher Scientific). […]

The next series concerns cystinosis patients. Particulars: high doses, syrup between meals; cited from earlier work.
For series [15] the following is noted: in vivo; cited from earlier work.
The test system of the next series is ALT and AST in plasma. Kind of series: Example 9 NASH patient case: plasma liver enzymes. The class given is in vivo, human. Particulars: within six weeks of initiating therapy; with vitamin C and vitamin E.
Setting [16] is: cysteamine hydrochloride at 30 mg/kg cysteamine base, gavage.

Description for ALT and AST in plasma: The daily dose of vitamin C is 2 grams and the daily dose of vitamin E is 800 international units of alpha tocopherol, RRR stereoisomer, which amounts to 533.3 milligrams per day (1 IU of tocopherol is defined as % milligrams of RRR-alpha-tocopherol). Half those amounts are administered twice per day.
Drug is administered in two divided doses (1,392 mg each) at 10 to 12 hour intervals, with breakfast and dinner.
In the second category (dynamic markers of drug response) levels of ALT and AST in plasma are followed over time as an index of ongoing hepatocyte damage. […] If ALT and AST levels had not dropped by 50% the regimen would have been discontinued.

For `CC(C)(S)[C@@H](N)C(=O)O` [penicillamine], the tolerability result in series [1] is on record as “not well tolerated by most patients”.
Regarding `CC(=O)NCCSSCCNC(=O)CCNC(=O)[C@H](O)C(C)(C)CO` [TTI-0602, N-acetylcysteamine-(R)-pantetheine disulfide], in series [2], the “tissue level of cysteamine in kidney” value was “over 50 uM” and the “tissue level of cysteamine in liver” value is reported as “over 50 uM”. For the same molecule, in series [3], the “dissolution of dose in saline” value is “did not completely dissolve in saline”. Further, the “undissolved drug in gastrointestinal contents” value in [4] is “a substantial amount of undissolved drug remained stuck in the stomachs of rats 8 and 9”.
Turning to `CC(C)(CO)[C@@H](O)C(=O)NCCC(=O)NCCSSCCN` [cysteamine-pantetheine disulfide, cysteamine-(R)-pantetheine disulfide], the WBC cystine level is 0.9 nanomoles of ½ cystine per mg protein in [5] (Patient 2, after sustained release component increased from 540 to 800 mg/day) and 1.34 nanomoles of ½ cystine per mg of protein in [5] (Patient 2, after two months, 1,800 mg/day cysteamine free base as IR/DR/SR powders). The “plasma cysteamine level six hours after the morning dose” value in [6] (Patient 2, 1,800 mg/day as IR/DR/SR powders) was found to be 22 µM. For the same molecule, the “plasma cysteamine level 12 hours after the morning dose” value in series [6] (Patient 2, immediately before the evening dose) came out at 4 µM.
As for `CC(S)C(=O)NCC(=O)O` (centres unmarked) [tiopronin], the tolerability result in [1] was “not well tolerated by most patients”.
The term Cmax denotes the peak of the concentration-time curve. Turning to `NCCS` [cysteamine bitartrate], the Cmax in [7] (read-out: Cmax of cysteamine, cysteamine bitartrate 20 mg/kg cysteamine base equivalent) is 81.9 µM.
As to `NCCS` [cysteamine, 2-aminoethanethiol], in the series on kidney fibrosis, the “efficacy in kidney fibrosis models” value is “effective”. Further, the “inhibition of CYP enzymes” value in [8] was “not an inhibitor of CYP1A2, CYP2A6, CYP2B6, CYP2C8, CYP2C9, CYP2C19, CYP2D6, CYP2E1 and CYP3A4”. In addition, the “proliferation of the parasite” value in the series on Plasmodium Falciparum is recorded as “inhibits proliferation”. Besides, in the series on R6/2 HD mouse model, the “beneficial effects in HD mouse model” value is “amelioration of weight loss and motor abnormalities, and prolongation of survival”. Also, the effect on biofilms result in the series with Pseudomonas aeruginosa (P. aeruginosa biofilms) was “prevented the formation of, and disrupted established P. aeruginosa biofilms”. Further, in the series on Pseudomonas aeruginosa (Pseudomonas aeruginosa and other CF pathogens, Lynovex from Novabiotics), the bactericidal activity result is “bactericidal”. Besides, the “inter-patient variation in cysteamine plasma levels” value in series [9] is given as “up to four fold”. Also, the “high molecular weight adiponectin multimers” value in the series on children with NAFLD is on record as “increased levels of high molecular weigh adiponectin multimers”. The matrix metalloproteinase activity entry in [10] (animal xenografts and cancer cell lines) is “significantly decreased”. The survival of mice entry in [10] (xenograft models) is given as “prolonged survival of mice in a dose-dependent manner without toxicity”. For the same molecule, in series [11], the “mucolytic activity vs. currently available mucolytic agents” value is “at least comparable mucolytic activity”. The “metabolism by CYP enzymes” value in [12] was “likely to be metabolized by multiple CYP enzymes, including CYP1A2, CYP2B6, CYP2C8, CYP2C9, CYP2C19, CYP2D6, and CYP2E1, but not by CYP2A6 or CYP3A4”. The sickling entry in series [13] is “marked inhibition of sickling”.
Turning to `Cl.NCCS` [cysteamine HCl, cysteamine hydrochloride], the “shape of the plasma cysteamine concentration-time curve” value in series [14] (cysteamine hydrochloride 30 mg/kg vs TTI-0602 120 mg/kg) was “a high, sharp peak”. In [14] (setting [16]), the “peak plasma cysteamine concentration” value is given as “over 200 uM” and the “time by which cysteamine concentration declined to less than half maximal” value was at most 90 min.
Turning to `NCCS.O=C(O)C(O)C(O)C(=O)O` (centres unmarked) [cysteamine bitartrate], in series [7] (cysteamine bitartrate 20 mg/kg cysteamine base equivalent), the “time by which cysteamine levels returned to baseline” value was at most 2 h. Also, the “cysteamine eliminated by 150 minutes (inferred)” value in series [7] (cysteamine bitartrate 20 mg/kg, tissue) was “over 95%”. The “tissue half life of cysteamine” value in series [7] (cysteamine bitartrate 20 mg/kg) was 25 to 29 min.
As for `CC(S)C(=O)NCC(=O)O` (stereo not drawn) [Alpha-mercaptopropionylglycine], in series [1], the tolerability entry was “not tolerated by about one third of patients”.
For `CC(C)(CO)[C@@H](O)C(=O)NCCC(=O)NCCSSCCNC(=O)CCNC(=O)[C@H](O)C(C)(C)CO` [pantethine], the gastrointestinal side effect result with cystinosis patients was “caused diarrhea”.
Regarding `CC(C)(COP(=O)(O)O)[C@@H](O)C(=O)NCCC(=O)NCCS` [4-phosphopantetheine], in [15], the “half life in blood” value is reported as “over 3 hours”.
For `CC(=O)NC(CSSCCN)C(=O)O` (centres unmarked) [cysteamine-N-acetylcysteine, cysteamine-N-acetylcysteine disulfide], in the series with ALT and AST in plasma, the “fall in plasma ALT” value was “at least 50%” and the “fall in plasma AST” value is “at least 50%”.

The record behind these values is patent US11173135B2 (Thiogenesis Therapeutics, Inc., priority 2016, dated 2021).
